# According to PMC11200976, “Pitavastatin Calcium Confers Fungicidal Properties to Fluconazole by Inhibiting Ubiquinone Biosynthesis and Generating Reactive Oxygen Species” (Antioxidants, 2024):
# Where a name gives a salt, the structure may show the parent alone.
# Test system: C. albicans
# Assay: Broth microdilution assay of synergistic lethality with 4 μg/mL FLC (recovery on drug-free YPD)
# Type: cell-based, Candida albicans
# Conditions: not given
row,Structure (SMILES),Synergistic lethal concentrations [µM]
1,CNCC[C@H](Oc1cccc2ccccc12)c1cccs1.Cl [Duloxetine (hydrochloride)],50
2,Br.NC(=O)C(c1ccccc1)(c1ccccc1)[C@@H]1CCN(CCc2ccc3c(c2)CCO3)C1 [Darifenacin (hydrobromide)],100

# Same assay, conditions: concentration of the compound that is synergistically lethal with 4 μg/mL FLC; C. albicans; recovery on drug-free YPD
row,Structure (SMILES),Synergistic lethal concentrations [µM]
1,CN1CCC(=C2c3ccccc3CCc3sccc32)CC1 [Pizotifen],100
2,Cl.OC(c1cc(C(F)(F)F)nc2c(C(F)(F)F)cccc12)C1CCCCN1 (centres unmarked) [Mefloquine (hydrochloride)],25
3,O=C(O)Cc1cc(I)c(Oc2ccc(O)c(I)c2)c(I)c1 [Tiratricol],100
4,Cc1ccc([C@@H]2O[C@H](CO)[C@@H](O)[C@H](O)[C@H]2O)cc1Cc1ccc(-c2ccc(F)cc2)s1 [Canagliflozin],100
5,CC1CC(OC(=O)C(O)c2ccccc2)CC(C)(C)C1 (centres unmarked) [Cyclandelate],100
6,CCCCCCCCOc1ccccc1C(=O)Nc1ccc(C(=O)OCC[N+](C)(CC)CC)cc1.[Br-] [Otilonium (bromide)],6.25
7,c1ccc2c(c1)Sc1ccccc1N2CC1CN2CCC1CC2 (centres unmarked) [Mequitazine],25
8,Cc1cc(CC(C)CC(C)(C)C)n(O)c(=O)c1.NCCO (centres unmarked) [Piroctone olamine],100
9,Clc1ccc2c(c1)C(N1CCNCC1)=Nc1ccccc1O2 [Amoxapine],100
10,Cc1ccc([C@@H]2O[C@H](CO)[C@@H](O)[C@H](O)[C@H]2O)cc1Cc1ccc(-c2ccc(F)cc2)s1.O [Canagliflozin (hemihydrate)],100
11,CC(C)(C)c1cc(NC(=O)Nc2ccc(-c3cn4c(n3)sc3cc(OCCN5CCOCC5)ccc34)cc2)no1 [Quizartinib],6.25
12,COc1cc2ncnc(Nc3ccc(F)c(Cl)c3)c2cc1NC(=O)/C=C/CN1CCCCC1 [Dacomitinib],100
13,Nc1c2ccccc2nc2ccccc12 [9-Aminoacridine],100
14,C[N+](C)(CC(=O)Nc1ccccc1)CC(=O)Nc1ccccc1.[Cl-] [Carcainium (chloride)],100
15,Oc1c(I)cc(Cl)c2cccnc12 [Clioquinol],12.5
16,CCCCCCOC(=O)N=C(N)c1ccc(NCc2nc3cc(C(=O)N(CCC(=O)OCC)c4ccccn4)ccc3n2C)cc1 [Dabigatran etexilate],6.25
17,CC(C)(C)NC(=O)[C@@H]1C[C@@H]2CCCC[C@@H]2CN1C[C@@H](O)[C@H](Cc1ccccc1)NC(=O)[C@H](CC(N)=O)NC(=O)c1ccc2ccccc2n1 [Saquinavir],50
18,Cc1ccc(O)c([C@H](CCN(C(C)C)C(C)C)c2ccccc2)c1 [Tolterodine],100
19,CC1=CC(=O)c2ccccc2C1=O [Menadione],100
20,CCOC(=O)C1=C(COCCN)NC(C)=C(C(=O)OC)C1c1ccccc1Cl.O=C(O)/C=C\C(=O)O (centres unmarked) [Amlodipine (maleate)],100
21,Cl.Cl.OCCOCCN1CCN(C(c2ccccc2)c2ccc(Cl)cc2)CC1 (centres unmarked) [Hydroxyzine (dihydrochloride)],100

row,Structure (SMILES),Synergistic lethal concentrations [µM]
1,O=C(O)c1cc(-c2ccc(F)cc2F)ccc1O [Diflunisal],100
2,CN(C)[C@@H](CCOc1cccc2ccccc12)c1ccccc1.Cl [Dapoxetine (hydrochloride)],50
3,O=C(O)/C=C/C(=O)O.O=C(c1ccc(F)c(F)c1Nc1ccc(I)cc1F)N1CC(O)([C@@H]2CCCCN2)C1.O=C(c1ccc(F)c(F)c1Nc1ccc(I)cc1F)N1CC(O)([C@@H]2CCCCN2)C1 [Cobimetinib (hemifumarate)],50
4,CC(C)[C@@]1(NC(=O)[C@@H]2C[C@@H]3c4cccc5[nH]cc(c45)C[C@H]3N(C)C2)O[C@@]2(O)[C@@H]3CCCN3C(=O)[C@H](Cc3ccccc3)N2C1=O.CS(=O)(=O)O [Dihydroergocristine (mesylate)],100
5,CN(C)CCC=C1c2ccccc2C=Cc2ccccc21.Cl [Cyclobenzaprine (hydrochloride)],100
6,Cn1ncnc1[C@H]1c2n[nH]c(=O)c3cc(F)cc(c23)N[C@@H]1c1ccc(F)cc1 [Talazoparib tosylate],100
7,CN1CCc2c(c3ccccc3n2Cc2ccccc2)C1 [Mebhydrolin],100
8,COCCCC/C(=N\OCCN)c1ccc(C(F)(F)F)cc1.O=C(O)/C=C\C(=O)O [Fluvoxamine (maleate)],100
9,O=C(NC1CCN(CCCCC2(C(=O)NCC(F)(F)F)c3ccccc3-c3ccccc32)CC1)c1ccccc1-c1ccc(C(F)(F)F)cc1 [Lomitapide],6.25
10,O=C(CCCN1CC=C(n2c(=O)[nH]c3ccccc32)CC1)c1ccc(F)cc1 [Droperidol],100
11,CN1CCC(=C2c3ccccc3Sc3ccccc32)CC1 [Pimethixene maleate],12.5
12,O=C(c1ccc(F)c(F)c1Nc1ccc(I)cc1F)N1CC(O)([C@@H]2CCCCN2)C1 [Cobimetinib],50
13,C=C/C=C/C[C@@H](C)[C@@H](O)[C@H]1C(=O)N[C@@H](CC)C(=O)N(C)CC(=O)N(C)[C@@H](CC(C)C)C(=O)N[C@@H](C(C)C)C(=O)N(C)[C@@H](CC(C)C)C(=O)N[C@@H](C)C(=O)N[C@H](C)C(=O)N(C)[C@@H](CC(C)C)C(=O)N(C)[C@@H](CC(C)C)C(=O)N(C)[C@@H](C(C)C)C(=O)N1C [Voclosporin],0.1953
14,O=C(O)CCc1nc(-c2ccccc2)c(-c2ccccc2)o1 [Oxaprozin],100
15,Cc1cc(Nc2ncc(Cl)c(Nc3ccccc3S(=O)(=O)C(C)C)n2)c(OC(C)C)cc1C1CCNCC1 [Ceritinib],12.5
16,O=C(O)c1ccccc1Nc1cccc(C(F)(F)F)c1 [Flufenamic acid],100
17,Cc1ccc2c(c1)[C@]13CCCC[C@@H]1[C@H](C2)N(C)CC3.O=P(O)(O)O [Dimemorfan (phosphate)],100
18,COC(=O)C1=C(C#N)NC(C)=C(C(=O)OC(C)C)C1c1cccc([N+](=O)[O-])c1 (centres unmarked) [Nilvadipine],100
19,CN1[C@@H]2CC[C@H]1C[C@@H](OC(c1ccccc1)c1ccccc1)C2.CS(=O)(=O)O [Benztropine (mesylate)],100
20,C/C=C(/C)C(=O)O[C@H]1C(C)=C[C@]23C(=O)[C@@H](C=C(CO)[C@@H](O)[C@]12O)[C@H]1[C@@H](C[C@H]3C)C1(C)C [Ingenol Mebutate],100
21,CN(C)CC/C=C1/c2ccccc2Sc2ccc(Cl)cc21 [Chlorprothixene],100

row,Structure (SMILES),Synergistic lethal concentrations [µM]
1,C=CCc1ccc(O)c(-c2cc(CC=C)ccc2O)c1 [Magnolol],12.5
2,CN1CCc2c(c3ccccc3n2Cc2ccccc2)C1.CN1CCc2c(c3ccccc3n2Cc2ccccc2)C1.O=S(=O)(O)c1cccc2c(S(=O)(=O)O)cccc12 [Mebhydrolin (napadisylate)],100
3,CCC(C)(C)c1ccc(CC(C)CN2C[C@@H](C)O[C@@H](C)C2)cc1.Cl (some centres unmarked) [Amorolfine (hydrochloride)],100
4,CNCCC=C1c2ccccc2CCc2ccccc21.Cl [Nortriptyline (hydrochloride)],100
5,CCOC(=O)C1=C(C)NC(C)=C(C(=O)OC)C1c1cccc(Cl)c1Cl (centres unmarked) [Felodipine],100
6,N#Cc1ccc2c(c1)N(CCCN1CCC(O)CC1)c1ccccc1S2 [Pericyazine],100
7,CN1CCN(C2=Nc3ccccc3Oc3ccc(Cl)cc32)CC1 [Loxapine],100
8,CN(C)CCC=C1c2ccccc2C(C)(C)c2ccccc21.Cl [Melitracen (hydrochloride)],50
9,COc1cc(Nc2c(C#N)cnc3cc(OCCCN4CCN(C)CC4)c(OC)cc23)c(Cl)cc1Cl [Bosutinib],25
10,CN1CCCC(CC2c3ccccc3Sc3ccccc32)C1.Cl.O (centres unmarked) [Metixene hydrochloride hydrate],25
11,Cc1[nH]c2ccccc2c1CCNCc1ccc(/C=C/C(=O)NO)cc1 [Panobinostat],100
12,C=CC(=O)Nc1cccc(Oc2nc(Nc3ccc(N4CCN(C)CC4)cc3)nc3ccsc23)c1 [Olmutinib],100
13,CC[C@H](C)C(=O)O[C@H]1C[C@@H](C)C=C2C=C[C@H](C)[C@H](CC[C@@H]3C[C@@H](O)CC(=O)O3)[C@H]21 [Lovastatin],100
14,CCCCc1oc2ccc(NS(C)(=O)=O)cc2c1C(=O)c1ccc(OCCCN(CCCC)CCCC)cc1.Cl [Dronedarone (Hydrochloride)],100
15,Cl.Cl.OCCN1CCN(CCC=C2c3ccccc3Sc3ccc(C(F)(F)F)cc32)CC1 (mixture of isomers) [Flupentixol dihydrochloride],100
16,CCOc1ccc(Cc2cc([C@@H]3O[C@H](SC)[C@@H](O)[C@H](O)[C@H]3O)ccc2Cl)cc1 [Sotagliflozin],100
17,CN(C(=O)CN(CCO)CC(=O)N(C)C(C)(C)Cc1ccccc1)C(C)(C)Cc1ccccc1 [Oxethazaine],50
18,O=C(O)C(c1ccccc1)(c1ccccc1)c1ccccc1.OCc1cc([C@@H](O)CNCCCCCCOCCOCc2c(Cl)cccc2Cl)ccc1O [Vilanterol (trifenatate],100
19,OCCN1CCN(CCCN2c3ccccc3Sc3ccc(Cl)cc32)CC1 [Perphenazine],25
20,Cc1ccc(C(=O)Nc2ccc(CN3CCN(C)CC3)c(C(F)(F)F)c2)cc1C#Cc1cnc2cccnn12 [Ponatinib],100
21,C=CC(=O)Nc1cc(Nc2nccc(-c3cn(C4CC4)c4ccccc34)n2)c(OC)cc1N(C)CCN(C)C.Cl [Almonertinib (hydrochloride)],12.5
